Assay results reported in patent publication US4195171A, “Derivatives of an antibiotic XK-62-2 and process for the production thereof” (Abbott Laboratories, priority 1975, dated 1980).
≈ marks a conversion by molar mass, not a printed value. Like-named read-outs stand apart in the source and are kept apart here.

Legend:
Test in all cases: Antibacterial spectrum, MIC by agar dilution method
Format in all cases: cell-based
[1] = system: Escherichia coli KY 8320; settings: KY8320, pH 7.2, strain produces neomycinkanamycin phosphotransferase Type I, read-out: Minimum Inhibitory Concentration
Text: (§1) XK-62-2, 1-N-[L-(-)-α-hydroxy-γ-aminobutyryl] XK-62-2, Compounds (I-1), (I-2), (II-1) and (II-2) against various Gram-negative and Gram-positive bacteria determined by agar dilution method at pH 7.2.
(§2) ^3 produces neomycinkanamycin phosphotransferase Type I

[2] = system: Escherichia coli KY 8349; settings: KY8349, pH 7.2, strain produces neomycinkanamycin phosphotransferase Type I, read-out: Minimum Inhibitory Concentration
Text: as §1, §2

[3] = system: Pseudomonas aeruginosa KY 8518; settings: KY8518, pH 7.2, strain produces neomycinkanamycin phosphotransferase Type I, read-out: Minimum Inhibitory Concentration
Text: as §1, §2

[4] = system: Serratia sp T-55; settings: T55, agar dilution, pH 7.2, read-out: Minimum Inhibitory Concentration
Text: as §1

[5] = system: Pseudomonas aeruginosa BMH 1; settings: BMH1, pH 7.2, read-out: Minimum Inhibitory Concentration
Text: as §1

[6] = system: bacillus subtilis ATCC 6633; settings: ATCC6633, pH 7.2, read-out: Minimum Inhibitory Concentration
Text: as §1

[7] = system: Streptococcus faecalis ATCC 10541; settings: Enterococcus faecalis, ATCC10541, pH 7.2, read-out: Minimum Inhibitory Concentration
Text: as §1

[8] = system: Pseudomonas aeruginosa No. 12; settings: pH 7.2, read-out: Minimum Inhibitory Concentration
Text: as §1

[9] = system: Klebsiella pneumoniae No. 8045; settings: pH 7.2, read-out: Minimum Inhibitory Concentration
Text: as §1

[10] = system: Shigella sonnei ATCC 9290; settings: ATCC9290, pH 7.2, read-out: Minimum Inhibitory Concentration
Text: as §1

[11] = system: Escherichia coli T-2; settings: T2, pH 7.2, read-out: Minimum Inhibitory Concentration
Text: as §1

[12] = system: Salmonella typhimurium E-9; settings: Salmonella enterica, pH 7.2, read-out: Minimum Inhibitory Concentration
Text: as §1

[13] = system: Pseudomonas aeruginosa E-2; settings: E2, pH 7.2, read-out: Minimum Inhibitory Concentration
Text: as §1

[14] = system: Proteus vulgaris 6897; settings: pH 7.2, read-out: Minimum Inhibitory Concentration
Text: as §1

[15] = system: Proteus morganii KY 4298; settings: Morganella morganii
Text: as §1

[16] = system: Pseudomonas aeruginosa NC-5; settings: NC5, pH 7.2, read-out: Minimum Inhibitory Concentration
Text: as §1

[17] = system: Proteus rettgeri KY 4288; settings: Providencia rettgeri, KY4288, pH 7.2, read-out: Minimum Inhibitory Concentration
Text: as §1

[18] = system: Escherichia coli Juhl; settings: pH 7.2, read-out: Minimum Inhibitory Concentration
Text: as §1

[19] = system: Sarcina lutea ATCC 9341; settings: Micrococcus luteus, ATCC9341, pH 7.2, read-out: Minimum Inhibitory Concentration
Text: as §1

[20] = system: Pseudomonas aeruginosa KY 8511; settings: KY8511, pH 7.2, strain produces gentamicin acetyltransferase Type I, read-out: Minimum Inhibitory Concentration
Text: as §1
(§3) ^2 produces gentamicin acetyltransferase Type I

[21] = system: Escherichia coli KY 8348; settings: KY8348, pH 7.2, strain produces gentamicin acetyltransferase Type I, read-out: Minimum Inhibitory Concentration
Text: as §1, §3

[22] = system: Pseudomonas aeruginosa KY Z-444
Text: as §1
(§4) ^8 produces 6N-acetyltransferase Type III

[23] = system: Pseudomonas aeruginosa Z-445; settings: Z445, pH 7.2, strain produces 6N-acetyltransferase Type III, read-out: Minimum Inhibitory Concentration
Text: as §1, §4

[24] = system: Escherichia coli KY 8321; settings: KY8321, pH 7.2, strain produces gentamicin adenyltransferase and neomycinkanamycin phosphotransferase Type II, read-out: Minimum Inhibitory Concentration
Text: as §1
^5 produces gentamicin adenyltransferase and neomycinkanamycin
phosphotransferase Type II

[25] = system: Klebsiella pneumoniae Y-58; settings: Y58, pH 7.2, strain produces gentamicin adenyltransferase, read-out: Minimum Inhibitory Concentration
Text: as §1
(§5) ^4 produces gentamicin adenyltransferase

[26] = system: Escherichia coli KY Z-338; settings: KYZ338, pH 7.2, strain produces gentamicin adenyltransferase, read-out: Minimum Inhibitory Concentration
Text: as §1, §5

[27] = system: Klebsiella pneumoniae Y-60; settings: Y60, pH 7.2, strain produces gentamicin adenyltransferase, read-out: Minimum Inhibitory Concentration
Text: as §1, §5

[28] = system: Providencia sp. 164; settings: pH 7.2, strain produces gentamicin acetyltransferase Type II, read-out: Minimum Inhibitory Concentration
Text: as §1
^9 produces gentamicin acetyltransferase Type II

[29] = system: Pseudomonas aeruginosa KY 8563
Text: as §1
^7 produces gentamicin acetyltransferase Type III

[30] = system: Pseudomonas aeruginosa KY 8519; settings: KY8519, agar dilution, pH 7.2, strain produces neomycinkanamycin phosphotransferase Type I and Type II, read-out: Minimum Inhibitory Concentration
Text: as §1
(§6) ^6 produces neomycinkanamycin phosphotransferase Type I and Type II

[31] = system: Pseudomonas aeruginosa KY 8512; settings: KY8512, pH 7.2, strain produces neomycinkanamycin phosphotransferase Type I and Type II, read-out: Minimum Inhibitory Concentration
Text: as §1, §6

| Structure (SMILES) | MIC [1] | MIC [2] | MIC [3] | MIC [4] | MIC [5] | MIC [6] | MIC [7] | MIC [8] | MIC [9] | MIC [10] | MIC [11] | MIC [12] | MIC [13] | MIC [14] | MIC [16] | MIC [17] | MIC [18] | MIC [19] | MIC [20] | MIC [21] | other results |
| --- | --- | --- | --- | --- | --- | --- | --- | --- | --- | --- | --- | --- | --- | --- | --- | --- | --- | --- | --- | --- | --- |
| CNCC1CCC(N)C(OC2C(N)CC(NC(=O)C(O)CN)C(OC3OCC(C)(O)C(N)C3O)C2O)O1 (racemic) [II-1, 3"-N-demethyl-1-N-(DL-α-hydroxy-β-aminopropionyl) XK-62-2] | 1.56 µg/mL (≈ 2.91 µM) | 0.4 µg/mL (≈ 0.745 µM) | 1.56 µg/mL (≈ 2.91 µM) | 1.56 µg/mL (≈ 2.91 µM) | 1.56 µg/mL (≈ 2.91 µM) | 0.2 µg/mL (≈ 0.373 µM) | 25 µg/mL (≈ 46.6 µM) | 0.78 µg/mL (≈ 1.45 µM) | 0.78 µg/mL (≈ 1.45 µM) | 3.12 µg/mL (≈ 5.81 µM) | 1.56 µg/mL (≈ 2.91 µM) | 0.78 µg/mL (≈ 1.45 µM) | 3.12 µg/mL (≈ 5.81 µM) | 12.5 µg/mL (≈ 23.3 µM) | 3.12 µg/mL (≈ 5.81 µM) | 1.56 µg/mL (≈ 2.91 µM) | 3.12 µg/mL (≈ 5.81 µM) | 1.56 µg/mL (≈ 2.91 µM) | 1.56 µg/mL (≈ 2.91 µM) | 0.4 µg/mL (≈ 0.745 µM) | MIC ([15]; KY4298, pH 7.2, read-out: Minimum Inhibitory Concentration): 3.12 µg/mL (≈ 5.81 µM); MIC ([22]; KYZ444, agar dilution, pH 7.2, strain produces 6N-acetyltransferase Type III, read-out: Minimum Inhibitory Concentration): 1.56 µg/mL (≈ 2.91 µM); MIC [23]: 6.25 µg/mL (≈ 11.6 µM); MIC [24]: 1.56 µg/mL (≈ 2.91 µM); MIC [25]: 0.78 µg/mL (≈ 1.45 µM); MIC [26]: 0.78 µg/mL (≈ 1.45 µM); MIC [27]: 1.56 µg/mL (≈ 2.91 µM); MIC [28]: 25 µg/mL (≈ 46.6 µM); MIC ([29]; KY8563, pH 7.2, read-out: Minimum Inhibitory Concentration): 3.12 µg/mL (≈ 5.81 µM); MIC [30]: 6.25 µg/mL (≈ 11.6 µM); MIC [31]: 1.56 µg/mL (≈ 2.91 µM) |
| CC1(O)COC(OC2C(NC(=O)C(O)CCN)CC(N)C(OC3OC(CN)CCC3N)C2O)C(O)C1N (single isomer, unassigned) [Compound I-2, 3"-N, 6'-N-didemethyl-1-N-[L-(-)-α-hydroxy-γ-aminobutyryl] XK-62-2] | 0.78 µg/mL (≈ 1.45 µM) | 0.4 µg/mL (≈ 0.745 µM) | 0.78 µg/mL (≈ 1.45 µM) | 3.12 µg/mL (≈ 5.81 µM) | 0.78 µg/mL (≈ 1.45 µM) | 0.1 µg/mL (≈ 0.186 µM) | 12.5 µg/mL (≈ 23.3 µM) | 0.4 µg/mL (≈ 0.745 µM) | 0.78 µg/mL (≈ 1.45 µM) | 1.56 µg/mL (≈ 2.91 µM) | 0.78 µg/mL (≈ 1.45 µM) | 0.4 µg/mL (≈ 0.745 µM) | 1.56 µg/mL (≈ 2.91 µM) | 3.12 µg/mL (≈ 5.81 µM) | 1.56 µg/mL (≈ 2.91 µM) | 0.78 µg/mL (≈ 1.45 µM) | 1.56 µg/mL (≈ 2.91 µM) | 0.78 µg/mL (≈ 1.45 µM) | 0.78 µg/mL (≈ 1.45 µM) | 0.4 µg/mL (≈ 0.745 µM) | MIC ([15]; KY4298, agar dilution, pH 7.2, read-out: Minimum Inhibitory Concentration): 0.78 µg/mL (≈ 1.45 µM); MIC ([22]; KYZ444, pH 7.2, read-out: Minimum Inhibitory Concentration): 1.56 µg/mL (≈ 2.91 µM); MIC [23]: 6.25 µg/mL (≈ 11.6 µM); MIC [24]: 0.78 µg/mL (≈ 1.45 µM); MIC [25]: 0.78 µg/mL (≈ 1.45 µM); MIC [26]: 0.4 µg/mL (≈ 0.745 µM); MIC [27]: 0.78 µg/mL (≈ 1.45 µM); MIC [28]: 6.25 µg/mL (≈ 11.6 µM); MIC ([29]; KY8563, agar dilution, pH 7.2, strain produces gentamicin acetyltransferase Type III, read-out: Minimum Inhibitory Concentration): 3.12 µg/mL (≈ 5.81 µM); MIC [30]: 3.12 µg/mL (≈ 5.81 µM); MIC [31]: 0.78 µg/mL (≈ 1.45 µM) |
